Experiment [1] concerns the target S. aureus Alpha hemolysin (Staphylococcus aureus, UniProt P09616). In words: cell-based. Particulars: A549-LDH Assay activity.
The target of experiment [2] is hemolysin alpha from Staphylococcus aureus (Staphylococcus aureus, UniProt P09616). In words: cell-based.
hemolysin alpha from Staphylococcus aureus, sequence (P09616 27-319 limits assumed): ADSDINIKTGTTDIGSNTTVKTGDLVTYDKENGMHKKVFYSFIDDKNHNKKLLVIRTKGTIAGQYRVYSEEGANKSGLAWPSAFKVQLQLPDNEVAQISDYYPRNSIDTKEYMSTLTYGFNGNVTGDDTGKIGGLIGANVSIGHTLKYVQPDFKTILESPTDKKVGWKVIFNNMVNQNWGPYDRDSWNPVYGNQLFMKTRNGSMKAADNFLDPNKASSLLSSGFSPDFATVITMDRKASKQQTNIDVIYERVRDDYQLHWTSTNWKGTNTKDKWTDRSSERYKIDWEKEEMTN

S. aureus Alpha hemolysin, sequence (P09616 27-319 limits assumed): as above

The EC50 is the concentration giving half of the maximal effect. In general, IC50 refers to the concentration needed to halve the response being measured. A lower IC50 goes with higher potency. `O=c1[nH]c2cc(Cl)c(S(=O)(=O)Nc3ccc(-c4cccnc4)c(Cl)c3)cc2[nH]c1=O` [Compound 48, 7-chloro-N-(3-chloro-4-(pyridin-3-yl)phenyl)-2,3-dioxo-1,2,3,4-tetrahydroquinoxaline-6-sulfonamide]: in experiment [1], the EC50 is 1000 to 6000 nM. Further, the IC50 in experiment [2] fell in the range of 30 to 100 nM.

`Cc1cc2[nH]c(=O)c(=O)[nH]c2cc1S(=O)(=O)Nc1ccc(-c2cccc(N)c2)c(Cl)c1` [Compound 311, N-(3′-amino-2-chloro-[1,1′-biphenyl]-4-yl)-7-methyl-2,3-dioxo-1,2,3,4-tetrahydroquinoxaline-6-sulfonamide]: the EC50 in experiment [1] was less than 30 nM; in experiment [2] it was 30 to 100 nM.

As to `CCO/C=C/c1ccc(NS(=O)(=O)c2cc3[nH]c(=O)c(=O)[nH]c3cc2C)cc1Cl` [Compound 293, N-[3-chloro-4-[(E)-2-ethoxyvinyl]phenyl]-7-methyl-2,3-dioxo-1,4-dihydroquinoxaline-6-sulfonamide], the EC50 in experiment [1] was 1000 to 6000 nM; in experiment [2] it was 100 to 1000 nM.

In experiment [1], `Cc1cc2[nH]c(=O)c(=O)[nH]c2cc1S(=O)(=O)Nc1ccc(-c2ccccc2C(N)=O)cc1` [Compound 126, 4′-((7-methyl-2,3-dioxo-1,2,3,4-tetrahydroquinoxaline)-6-sulfonamido)-[1,1′-biphenyl]-2-carboxamide] returned an EC50 of 100 to 1000 nM. Also, the IC50 in experiment [2] was 1000 to 3500 nM.

In the case of `Cc1cc2[nH]c(=O)c(=O)[nH]c2cc1S(=O)(=O)Nc1ccc(N2CCOC[C@H]2C)c(Cl)c1` [Compound 243, (R)-N-(3-chloro-4-(3-methylmorpholino)phenyl)-7-methyl-2,3-dioxo-1,2,3,4-tetrahydroquinoxaline-6-sulfonamide], the EC50 in experiment [1] lay within 100 to 1000 nM; in experiment [2], 1000 to 3500 nM.

On to `Cc1cc2[nH]c(=O)c(=O)[nH]c2cc1S(=O)(=O)Nc1cc(C)c(-c2ccoc2)c(C)c1` [Compound 107, N-(4-(furan-3-yl)-3,5-dimethylphenyl)-7-methyl-2,3-dioxo-1,2,3,4-tetrahydroquinoxaline-6-sulfonamide], for which, in experiment [1], the EC50 is 30 to 100 nM. The compound further returned a half-maximal inhibitory concentration (IC50) in experiment [2] of 100 to 1000 nM.

For the compound `Cc1cc2[nH]c(=O)c(=O)[nH]c2cc1S(=O)(=O)Nc1ccc(-c2ccc(S(C)(=O)=O)cc2)c(Cl)c1` [Compound 398, N-[3-chloro-4-(4-methylsulfonylphenyl)phenyl]-7-methyl-2,3-dioxo-1,4-dihydroquinoxaline-6-sulfonamide], the results for the EC50 in experiment [1] and in experiment [2] were 1000 to 6000 nM and 1000 to 3500 nM, respectively.

As to `Cc1cc2[nH]c(=O)c(=O)[nH]c2cc1S(=O)(=O)Nc1ccc2c(c1)B(O)OC2` [Compound 388, N-(1-hydroxy-3H-2,1-benzoxaborol-6-yl)-7-methyl-2,3-dioxo-1,4-dihydroquinoxaline-6-sulfonamide], the EC50 in experiment [1] lay within 1000 to 6000 nM; in experiment [2], 100 to 1000 nM.

On to `O=c1[nH]c2cc(C3CC3)c(S(=O)(=O)Nc3cnc(-c4ccc(F)cc4)c(Cl)c3)cc2[nH]c1=O` [Compound 379, N-[5-chloro-6-(4-fluorophenyl)-3-pyridyl]-7-cyclopropyl-2,3-dioxo-1,4-dihydroquinoxaline-6-sulfonamide], for which the EC50 in experiment [1] and in experiment [2] was 100 to 1000 nM in each case.

Turning to `O=c1[nH]c2cc(Cl)c(S(=O)(=O)Nc3ccc(-c4ccc(F)c(Cl)c4F)c(Cl)c3)cc2[nH]c1=O` [Compound 105, 7-chloro-N-(2,3′-dichloro-2′,4′-difluoro-[1,1′-biphenyl]-4-yl)-2,3-dioxo-1,2,3,4-tetrahydroquinoxaline-6-sulfonamide], the EC50 in experiment [1] was 100 to 1000 nM. The compound also registered an IC50 in experiment [2] of 100 to 1000 nM.

As for `Cc1cc2[nH]c(=O)c(=O)[nH]c2cc1S(=O)(=O)Nc1ccc(-c2cc(F)c3c(c2)NCCO3)c(Cl)c1` [Compound 357, N-[3-chloro-4-(8-fluoro-3,4-dihydro-2H-1,4-benzoxazin-6-yl)phenyl]-7-methyl-2,3-dioxo-1,4-dihydroquinoxaline-6-sulfonamide], the EC50 in experiment [1] was 100 to 1000 nM; in experiment [2] it was less than 30 nM.

Consider `Cc1cn2ccc(-c3ccc(NS(=O)(=O)c4cc5[nH]c(=O)c(=O)[nH]c5cc4C)cc3Cl)cc2n1` [Compound 338, N-[3-chloro-4-(2-methylimidazo[1,2-a]pyridin-7-yl)phenyl]-7-methyl-2,3-dioxo-1,4-dihydroquinoxaline-6-sulfonamide], for which the EC50 in experiment [1] is 30 to 100 nM; in experiment [2], less than 30 nM.

Turning to `Cc1cc2[nH]c(=O)c(=O)[nH]c2cc1S(=O)(=O)Nc1ccc(-n2cncn2)cc1` [Compound 265, 7-methyl-2,3-dioxo-N-[4-(1,2,4-triazol-1-yl)phenyl]-1,4-dihydroquinoxaline-6-sulfonamide], the EC50 was in the range of 1000 to 6000 nM in experiment [1] and 1000 to 3500 nM in experiment [2].

Consider `Cc1cc2[nH]c(=O)c(=O)[nH]c2cc1S(=O)(=O)Nc1ccc(C2CCCCC2)c(Cl)c1` [Compound 284, N-(3-chloro-4-cyclohexyl-phenyl)-7-methyl-2,3-dioxo-1,4-dihydroquinoxaline-6-sulfonamide], for which the EC50 in experiment [1] was in the range of 100 to 1000 nM; in experiment [2], 30 to 100 nM.

In the case of `Cc1cc2[nH]c(=O)c(=O)[nH]c2cc1S(=O)(=O)Nc1ccc(-c2ccncc2)cc1` [Compound 127, 7-methyl-2,3-dioxo-N-(4-(pyridin-4-yl)phenyl)-1,2,3,4-tetrahydroquinoxaline-6-sulfonamide], in experiment [1], the EC50 was 100 to 1000 nM. The compound also registered a concentration for half-maximal inhibition (IC50) in experiment [2] of 100 to 1000 nM.

As to `Cc1cc2[nH]c(=O)c(=O)[nH]c2cc1S(=O)(=O)Nc1cc(C)c(-c2ccsc2)c(C)c1` [Compound 42, N-(3,5-dimethyl-4-(thiophen-3-yl)phenyl)-7-methyl-2,3-dioxo-1,2,3,4-tetrahydroquinoxaline-6-sulfonamide], the EC50 in experiment [1] lay within 100 to 1000 nM. In experiment [2], this compound returned an IC50 of 30 to 100 nM.

Consider `Cc1cc2[nH]c(=O)c(=O)[nH]c2cc1S(=O)(=O)Nc1ccc(-c2ccc(N(C)C)cc2)c(Cl)c1` [Compound 288, N-[3-chloro-4-[4-(dimethylamino)phenyl]phenyl]-7-methyl-2,3-dioxo-1,4-dihydroquinoxaline-6-sulfonamide], for which the EC50 in experiment [1] was 1000 to 6000 nM; in experiment [2] it was 100 to 1000 nM.

`Cc1cc2[nH]c(=O)c(=O)[nH]c2cc1S(=O)(=O)Nc1ccc(N2CCOCC2(C)C)c(Cl)c1` [Compound 202, N-(3-chloro-4-(3,3-dimethylmorpholino)phenyl)-7-methyl-2,3-dioxo-1,2,3,4-tetrahydroquinoxaline-6-sulfonamide]: the EC50 in experiment [1] and in experiment [2] was 100 to 1000 nM each time.

In experiment [1], `O=c1[nH]c2cc(F)c(S(=O)(=O)Nc3ccc(C4CCCCC4)cc3)cc2[nH]c1=O` [Compound 71, N-(4-cyclohexylphenyl)-7-fluoro-2,3-dioxo-1,2,3,4-tetrahydroquinoxaline-6-sulfonamide] yielded an EC50 of 100 to 1000 nM. This compound also gave an IC50 in experiment [2] of 100 to 1000 nM.

For the compound `[2H]C([2H])([2H])c1cc2[nH]c(=O)c(=O)[nH]c2cc1S(=O)(=O)Nc1cnc(-c2ccc(F)cc2)c(Cl)c1` [Compound 392, N-[5-chloro-6-(4-fluorophenyl)-3-pyridyl]-2,3-dioxo-7-(trideuteriomethyl)-1,4-dihydroquinoxaline-6-sulfonamide], the values for the EC50 in experiment [1] and in experiment [2] were 100 to 1000 nM and 30 to 100 nM, respectively.

Regarding `Cc1cc2[nH]c(=O)c(=O)[nH]c2cc1S(=O)(=O)Nc1ccc(-c2ccc(OC(C)C)nc2)c(Cl)c1` [Compound 291, N-[3-chloro-4-(6-isopropoxy-3-pyridyl)phenyl]-7-methyl-2,3-dioxo-1,4-dihydroquinoxaline-6-sulfonamide], the EC50 in experiment [1] and in experiment [2] was 100 to 1000 nM each time.

`Cc1cc(NS(=O)(=O)c2cc3[nH]c(=O)c(=O)[nH]c3cc2F)ccc1-c1ccccc1` [Compound 33, 7-fluoro-N-(2-methyl-[1,1′-biphenyl]-4-yl)-2,3-dioxo-1,2,3,4-tetrahydroquinoxaline-6-sulfonamide]: the EC50 in experiment [1] lay within 30 to 100 nM. This compound had a half-inhibitory concentration (IC50) in experiment [2] of less than 30 nM.

Consider `Cc1cc2[nH]c(=O)c(=O)[nH]c2cc1S(=O)(=O)Nc1ccc(-c2ccc3c(c2)NCCO3)c(Cl)c1` [Compound 353, N-[3-chloro-4-(3,4-dihydro-2H-1,4-benzoxazin-6-yl)phenyl]-7-methyl-2,3-dioxo-1,4-dihydroquinoxaline-6-sulfonamide], for which the concentration giving a half-maximal response (EC50) in experiment [1] was in the range of 100 to 1000 nM; in experiment [2], 30 to 100 nM.

Regarding `C#Cc1cc(NS(=O)(=O)c2cc3[nH]c(=O)c(=O)[nH]c3cc2C)ccc1-c1ccc(OC)c(F)c1` [Compound 300, N-[3-ethynyl-4-(3-fluoro-4-methoxy-phenyl)phenyl]-7-methyl-2,3-dioxo-1,4-dihydroquinoxaline-6-sulfonamide], the EC50 in experiment [1] and in experiment [2] was less than 30 nM throughout.

For the compound `Cc1cc2[nH]c(=O)c(=O)[nH]c2cc1S(=O)(=O)Nc1ccc(OC(F)F)cc1` [Compound 394, N-[4-(difluoromethoxy)phenyl]-7-methyl-2,3-dioxo-1,4-dihydroquinoxaline-6-sulfonamide], the values for the EC50 in experiment [1] and in experiment [2] were 30 to 100 nM and 100 to 1000 nM, respectively.

For the compound `Cc1cc(C)cc(-c2ccc(NS(=O)(=O)c3cc4[nH]c(=O)c(=O)[nH]c4cc3C)cc2Cl)c1` [Compound 248, N-[3-chloro-4-(3,5-dimethylphenyl)phenyl]-7-methyl-2,3-dioxo-1,4-dihydroquinoxaline-6-sulfonamide], the EC50 in experiment [1] and in experiment [2] was 100 to 1000 nM each time.

As to `Cc1cc2[nH]c(=O)c(=O)[nH]c2cc1S(=O)(=O)Nc1ccc(C2COC2)cc1` [Compound 384, 7-methyl-N-[4-(oxetan-3-yl)phenyl]-2,3-dioxo-1,4-dihydroquinoxaline-6-sulfonamide], the figures for the EC50 in experiment [1] and in experiment [2] were 100 to 1000 nM and 1000 to 3500 nM, respectively.

For `Cc1cc2[nH]c(=O)c(=O)[nH]c2cc1S(=O)(=O)Nc1ccc(-c2ccc3c(c2)NC(=O)CO3)c(C(F)(F)F)c1` [Compound 367, 7-methyl-2,3-dioxo-N-[4-(3-oxo-4H-1,4-benzoxazin-6-yl)-3-(trifluoromethyl)phenyl]-1,4-dihydroquinoxaline-6-sulfonamide], the EC50 in experiment [1] was 30 to 100 nM; in experiment [2] it was less than 30 nM.

Source of the values: patent US20240376084A1, “INHIBITORS OF ALPHA-HEMOLYSIN OF STAPHYLOCOCCUS AUREUS” (Helmholtz-Zentrum Fur Infektionsforschung GmbH, priority 2021, published 2024).
